This passage reports IC50 results from patent US20130303507A1 (Novartis AG, priority 2011, published 2013).

Where “and” joins values, the source holds several entries; their conditions need not be identical. Equal values may be shown once.

For one assay, the target named is Cdk9/cyclinT1 (Homo sapiens, UniProt P50750). The assay is described as follows: Cdk9/cyclinT1 Alpha Screen protocol. The class given is biochemical. Set-up: Full length wild type Cdk9/cyclin T1 is purchased from Invitrogen; purchased Invitrogen PV4131. The settings on record: TFA salt; individual determinations; read-out: CDK9_cyclinT1_AS2_IC50. The protocol: Cdk9/cyclinT1 Alpha Screen Protocol
Cdk9/cyclinT1, sequence (P50750 whole entry): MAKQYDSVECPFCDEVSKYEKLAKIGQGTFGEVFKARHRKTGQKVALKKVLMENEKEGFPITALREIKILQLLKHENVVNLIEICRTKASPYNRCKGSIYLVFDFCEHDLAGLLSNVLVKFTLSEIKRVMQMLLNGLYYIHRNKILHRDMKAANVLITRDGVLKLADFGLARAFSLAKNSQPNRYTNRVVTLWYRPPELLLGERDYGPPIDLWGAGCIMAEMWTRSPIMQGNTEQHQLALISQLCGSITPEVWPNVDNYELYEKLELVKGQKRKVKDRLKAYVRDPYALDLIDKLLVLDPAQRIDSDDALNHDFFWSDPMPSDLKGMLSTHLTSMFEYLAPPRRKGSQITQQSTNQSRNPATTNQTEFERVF
Cdk9/cyclinT1, sequence (O60563 whole entry partner): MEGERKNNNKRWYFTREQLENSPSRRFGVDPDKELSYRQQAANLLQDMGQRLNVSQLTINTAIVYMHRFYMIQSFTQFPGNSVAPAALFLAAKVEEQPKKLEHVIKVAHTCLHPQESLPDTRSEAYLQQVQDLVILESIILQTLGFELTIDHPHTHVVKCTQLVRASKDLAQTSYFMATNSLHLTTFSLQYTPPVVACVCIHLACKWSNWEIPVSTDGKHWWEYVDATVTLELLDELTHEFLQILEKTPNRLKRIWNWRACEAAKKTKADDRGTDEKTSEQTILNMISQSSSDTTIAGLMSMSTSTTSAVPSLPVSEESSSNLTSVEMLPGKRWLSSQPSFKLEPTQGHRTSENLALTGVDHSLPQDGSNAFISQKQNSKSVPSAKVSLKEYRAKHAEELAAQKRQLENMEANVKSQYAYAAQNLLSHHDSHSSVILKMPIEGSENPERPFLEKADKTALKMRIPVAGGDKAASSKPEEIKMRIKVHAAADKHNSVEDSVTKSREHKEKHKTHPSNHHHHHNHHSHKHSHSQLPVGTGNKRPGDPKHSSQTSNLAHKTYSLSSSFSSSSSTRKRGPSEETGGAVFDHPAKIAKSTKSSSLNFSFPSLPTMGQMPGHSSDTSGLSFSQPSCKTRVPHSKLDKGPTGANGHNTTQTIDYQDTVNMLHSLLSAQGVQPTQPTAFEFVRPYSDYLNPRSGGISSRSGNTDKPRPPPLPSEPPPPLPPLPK
Full length wild type Cdk9/cyclin T1 is purchased from Invitrogen, cat#PV4131. […] The cdk7tide peptide substrate, biotin-[…] -OH, is a custom synthesis purchased from the Tufts University Core Facility. The final concentration of cdk7tide peptide substrate is 200 nM. […] Phospho-Rpb1 CTD (ser2/5) substrate antibody is purchased from Cell Signaling Technology. The final concentration of antibody is 0.67 ug/ml. The Alpha Screen Protein A detection kit containing donor and acceptor beads is purchased from PerkinElmer Life Sciences. The final concentration of both donor and acceptor beads is 15 ug/ml. Alpha Screen is used for detection. […] The biotinylated-cdk7tide peptide substrate is bound to the streptavidin coated donor bead. The antibody is bound to the protein A coated acceptor bead. The antibody will bind to the phosphorylated form of the biotinylated-cdk7tide peptide substrate, bringing the donor and acceptor beads into close proximity. Laser irradiation of the donor bead at 680 nm generates a flow of short-lived singlet oxygen molecules. When the donor and acceptor beads are in close proximity, the reactive oxygen generated by the irradiation of the donor beads initiates a luminescence/fluorescence cascade in the acceptor beads. This process leads to a highly amplified signal with output in the 530-620 nm range. Assays are carried out in 50 mM Hepes, pH=7.5, 10 mM MgCl2, 0.1% Bovine Serum Albumin, 0.01% Tween-20, 1 mM Dithiothreitol, 2.5% Dimethyl Sulfoxide. Stop and detection steps are combined using 50 mM Hepes, pH=7.5, 18 mM EDTA, 0.1% Bovine Serum Albumin, 0.01% Tween-20.
With `N#CC1(CNc2cccc(-c3cc(N[C@H]4CC[C@H](N[C@@H]5CCCC[C@H]5O)CC4)ncc3Cl)n2)CCOCC1` [Compound 525], the IC50 is 0.542 nM.

As for `COC[C@@H](C)NC[C@H]1CC[C@H](Nc2cc(-c3cccc(NCC4(C#N)CCOCC4)n3)c(Cl)cn2)CC1` [Compound 532], the IC50 was found to be 0.703 nM.

Consider `COC[C@H](C)NC[C@H]1CC[C@H](Nc2cc(-c3cccc(NCC4(C#N)CCOCC4)n3)c(Cl)cn2)CC1` [Compound 533], for which the IC50 was 0.867 nM.

`N#CC1(COc2cncc(-c3cc(N[C@H]4CC[C@H](N)CC4)ncc3F)n2)CCOCC1` [Compound 534]: the IC50 came out at 0.471 nM.

As for `N#CC1(CNc2cccc(-c3cc(N[C@H]4CC[C@H](CN5CCOCC5)CC4)ncc3Cl)n2)CCOCC1` [Compound 536], the IC50 was 1.87 nM.

Regarding `N#CC1(CNc2cccc(-c3cc(N[C@H]4CC[C@@H](N5CCCOCC5)CC4)ncc3Cl)n2)CCOCC1` [Compound 538], the IC50 is 19.8 nM and 20.9 nM.

As for `C[C@H](N[C@H]1CC[C@H](Nc2cc(-c3cccc(NCC4(C#N)CCOCC4)n3)c(Cl)cn2)CC1)[C@@H](C)O` [Compound 541], the IC50 turned out to be 0.303 nM.

In the case of `N#CC1(CNc2cccc(-c3cc(N[C@H]4CC[C@H](NC[C@H](O)CF)CC4)ncc3Cl)n2)CCOCC1` [Compound 542], the IC50 is 0.168 nM.

With `C[C@H](O)[C@@H](C)N[C@H]1CC[C@H](Nc2cc(-c3cccc(NCC4(C#N)CCOCC4)n3)c(Cl)cn2)CC1` [Compound 543], the IC50 was found to be 0.229 nM.

On to `N#CC1(CNc2cccc(-c3cc(N[C@H]4CC[C@H](NC[C@@H](O)CF)CC4)ncc3Cl)n2)CCOCC1` [Compound 544], for which the IC50 is 0.2 nM.

As for `COC[C@@H](C)N[C@H]1CC[C@H](Nc2cc(-c3cccc(NCC4(C#N)CC4)n3)c(F)cn2)CC1` [Compound 551], the IC50 was 0.0753 nM and 0.28 nM and 0.0939 nM.

For `COC[C@@H](C)N[C@H]1CC[C@H](Nc2cc(-c3cncc(OCC4(C#N)CCOCC4)n3)c(Cl)cn2)CC1` [Compound 552], the IC50 was 0.842 nM and 1.05 nM and 0.384 nM.

As to `COC[C@@H](C)N[C@H]1CC[C@H](Nc2cc(-c3cncc(OCC4(C#N)CCOCC4)n3)c(F)cn2)CC1` [Compound 553], the IC50 was 0.718 nM and 0.262 nM and 0.579 nM.

Take `COCCN[C@H]1CC[C@H](Nc2cc(-c3cncc(OCC4(C#N)CCOCC4)n3)c(F)cn2)CC1` [Compound 559]: the IC50 worked out at 0.205 nM.

Turning to `N#CC1(COc2cncc(-c3cc(N[C@H]4CC[C@H](NCCC(F)(F)F)CC4)ncc3Cl)n2)CCOCC1` [Compound 562], the IC50 is 0.321 nM.

`COCCN[C@H]1CC[C@H](Nc2cc(-c3ccc(F)c(NCC4(C)CCOCC4)n3)c(Cl)cn2)CC1` [Compound 565]: the IC50 was 0.433 nM and 0.226 nM.

In the case of `COC[C@H](C)N[C@H]1CC[C@H](Nc2cc(-c3cccc(NCC4(C#N)CC4)n3)c(F)cn2)CC1` [Compound 566], the IC50 was 0.787 nM and 0.846 nM.

The assay is the same for the next values; noted with them: neutral species; individual determinations; read-out: CDK9_cyclinT1_AS2_IC50.
Consider `CC(C)(O)CN[C@H]1CC[C@H](Nc2cc(-c3cncc(OCC4(C#N)CCOCC4)n3)c(Cl)cn2)CC1` [Compound 524], for which the IC50 was determined as 0.85 nM.

On to `COCC(C)NC[C@H]1CC[C@H](Nc2cc(-c3cccc(NCC4(C#N)CCOCC4)n3)c(Cl)cn2)CC1` (some centres unmarked) [Compound 526], for which the IC50 is 1.19 nM.

As for `CC(C)(C)OCCN[C@H]1CC[C@H](Nc2cc(-c3cccc(NCC4(C#N)CCOCC4)n3)c(F)cn2)CC1` [Compound 527], the IC50 is 0.594 nM.

For `N#CC1(CNc2cccc(-c3cc(N[C@H]4CC[C@H](N5CCn6c(nnc6C(F)(F)F)C5)CC4)ncc3Cl)n2)CCOCC1` [Compound 528], the IC50 came out at 7.73 nM.

Turning to `COC(C)(C)CN[C@H]1CC[C@H](Nc2cc(-c3cccc(NCC4(C#N)CCOCC4)n3)c(Cl)cn2)CC1` [Compound 529], the IC50 was determined as 0.281 nM.

Turning to `N#CC1(CNc2cccc(-c3cc(N[C@H]4CC[C@@H](N5CCn6c(nnc6C(F)(F)F)C5)CC4)ncc3Cl)n2)CCOCC1` [Compound 530], the IC50 was determined as 36.9 nM.

Consider `C[C@H](N[C@H]1CC[C@H](Nc2cc(-c3cccc(NCC4(C#N)CCOCC4)n3)c(Cl)cn2)CC1)[C@@H](C)O` [Compound 531], for which the IC50 came out at 0.471 nM.

On to `N#CC1(CNc2cccc(-c3cc(N[C@H]4CC[C@H](NCC(O)CF)CC4)ncc3Cl)n2)CCOCC1` (some centres unmarked) [Compound 535], for which the IC50 was 0.398 nM.

Take `N#CC1(CNc2cccc(-c3cc(N[C@H]4CC[C@H](CN5CCOCC5)CC4)ncc3Cl)n2)CCOCC1` [Compound 536]: the IC50 was determined as 2.11 nM.

For `CC(O)(CN[C@H]1CC[C@H](Nc2cc(-c3cccc(NCC4(C#N)CCOCC4)n3)c(Cl)cn2)CC1)C(F)(F)F` (some centres unmarked) [Compound 539], the IC50 is 0.537 nM and 0.466 nM.

In the case of `COCCNC[C@H]1CC[C@H](Nc2cc(-c3cccc(NCC4(C#N)CCOCC4)n3)c(Cl)cn2)CC1` [Compound 540], the IC50 is 0.596 nM and 0.536 nM.

On to `N#CC1(CNc2cccc(-c3cc(N[C@H]4CC[C@H](N5CC6(COC6)C5)CC4)ncc3Cl)n2)CCOCC1` [Compound 546], for which the IC50 is 1.42 nM and 1.08 nM and 1.12 nM.

`N#CC1(CNc2cccc(-c3cc(N[C@H]4CC[C@@H](N5CC6(COC6)C5)CC4)ncc3Cl)n2)CCOCC1` [Compound 547]: the IC50 amounted to 6.15 nM.

For the compound `N#CC1(COc2cncc(-c3cc(N[C@H]4CC[C@H](N5CCCOCC5)CC4)ncc3Cl)n2)CCOCC1` [Compound 548], the IC50 stood at 1.01 nM.

In the case of `N#CC1(COc2cncc(-c3cc(N[C@H]4CC[C@@H](N5CCCOCC5)CC4)ncc3Cl)n2)CCOCC1` [Compound 549], the IC50 worked out at 55.6 nM.

As to `N#CC1(COc2cncc(-c3cc(N[C@H]4CC[C@H](NCCF)CC4)ncc3Cl)n2)CCOCC1` [Compound 550], the IC50 was 0.429 nM.

For `COC[C@@H](C)N[C@H]1CC[C@H](Nc2cc(-c3cccc(NCC4(C#N)CC4)n3)c(F)cn2)CC1` [Compound 551], the IC50 was 0.299 nM and 0.303 nM and 0.654 nM.

As for `COC[C@@H](C)N[C@H]1CC[C@H](Nc2cc(-c3cncc(OCC4(C#N)CCOCC4)n3)c(Cl)cn2)CC1` [Compound 552], the IC50 was found to be 1.12 nM.

On to `COC[C@@H](C)N[C@H]1CC[C@H](Nc2cc(-c3cncc(OCC4(C#N)CCOCC4)n3)c(F)cn2)CC1` [Compound 553], for which the IC50 came to 0.654 nM.

Take `C[C@H](O)CN[C@H]1CC[C@H](Nc2cc(-c3cccc(NCC4(C#N)CCOCC4)n3)c(Cl)cn2)CC1` [Compound 554]: the IC50 came out at 0.395 nM.

For `COCCN(C1CC1)[C@H]1CC[C@H](Nc2cc(-c3cncc(OCC4(C#N)CCOCC4)n3)c(F)cn2)CC1` [Compound 555], the IC50 stood at 2.13 nM.

On to `COCCN[C@H]1CC[C@H](Nc2cc(-c3cncc(OCC4(C#N)CC4)n3)c(F)cn2)CC1` [Compound 556], for which the IC50 came to 0.628 nM.

As for `COC[C@@H](C)N[C@H]1CC[C@H](Nc2cc(-c3cncc(OCC4(C#N)CC4)n3)c(F)cn2)CC1` [Compound 557], the IC50 came out at 0.378 nM.

For `COCCN[C@H]1CC[C@H](Nc2cc(-c3cncc(OCC4(C#N)CCOCC4)n3)c(F)cn2)CC1` [Compound 559], the IC50 came to 0.512 nM.

In the case of `N#CC1(CNc2cccc(-c3cc(N[C@H]4CC[C@H](NCC5(O)CC5)CC4)ncc3Cl)n2)CCOCC1` [Compound 560], the IC50 came to 0.481 nM.

For the compound `N#CC1(COc2cncc(-c3cc(N[C@H]4CC[C@H](NCCC(F)(F)F)CC4)ncc3Cl)n2)CCOCC1` [Compound 562], the IC50 came to 0.549 nM.

With `N#CC1(CNc2cccc(-c3cc(N[C@H]4CC[C@H](NC5CC(F)(F)C5)CC4)ncc3Cl)n2)CCOCC1` [Compound 563], the IC50 is 0.416 nM.

With `N#CC1(CNc2cccc(-c3cc(N[C@H]4CC[C@@H](NC5CC(F)(F)C5)CC4)ncc3Cl)n2)CCOCC1` [Compound 564], the IC50 stood at 9.54 nM.

Regarding `COCCN[C@H]1CC[C@H](Nc2cc(-c3ccc(F)c(NCC4(C)CCOCC4)n3)c(Cl)cn2)CC1` [Compound 565], the IC50 is 0.334 nM and 0.311 nM.

For `N#CC1(CN[C@H]2CC[C@H](Nc3cc(-c4cncc(OCC5(C#N)CCOCC5)n4)c(Cl)cn3)CC2)CC1` [Compound 567], the IC50 was 0.754 nM and 0.279 nM.

`N#CC1(CNc2cccc(-c3cc(N[C@H]4CC[C@H](N5CCC6(COC6)C5)CC4)ncc3Cl)n2)CCOCC1` [Compound 570]: the IC50 is 1.34 nM.

On to `N#CC1(CNc2cccc(-c3cc(N[C@H]4CC[C@H](NCCCO)CC4)ncc3Cl)n2)CCOCC1` [Compound 571], for which the IC50 is 0.397 nM.

With `N#CC1(CNc2cccc(-c3cc(N[C@H]4CC[C@H](NCCO)CC4)ncc3Cl)n2)CCOCC1` [Compound 572], the IC50 was found to be 0.301 nM.
